{"source": "PubChem BioAssay AID2060888", "about": "(Molecular Pharmacology Branch, DTP, NCI, 2025)", "system": "695427-040-R-J1-PDC complex spheroid viability", "assay": "Anticancer human tumor 695427-040-R-J1-PDC patient-derived colon adenocarcinoma cell line growth inhibition [RAS]", "conditions": "for IC50: curve of first compound; for viability, T/C: stronger effect = lower value", "summary_of_the_method": "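Tumour cells grown as complex spheroids with HUVEC endothelial cells and mesenchymal stem cells, treated with RAS pathway inhibitor combinations. Each agent spans half-log steps from near clinical Cmax, or 10 microM where Cmax is unknown.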", "data": [{"compound": "NC1c2ccccc2OC12CCN(c1cnc3c(N4CCCc5ncccc54)n[nH]c3n1)CC2", "note": "(configuration not stated) + C=CC(=O)N1CCN(c2nc(OCC3CCCN3C)nc3c(F)c(-c4nc(N)cc(C)c4C(F)(F)F)c(Cl)cc23)C(C)C1;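 further: viability read after seven days of drug exposure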;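 on viability, T/C: 100% = DMSO vehicle control viability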", "values": [{"measurement": "IC50", "setting": "second compound 0.00316 µM", "result": 4.31, "unit": "µM"}, {"measurement": "IC50", "setting": "second compound 0.01 µM", "result": 3.21, "unit": "µM"}, {"measurement": "IC50", "setting": "second compound 0.0316 µM", "result": 2.88, "unit": "µM"}, {"measurement": "IC50", "setting": "second compound 0.1 µM", "result": 2.16, "unit": "µM"}, {"measurement": "IC50", "setting": "second compound 0.316 µM", "result": 3.37, "unit": "µM"}, {"measurement": "IC50", "setting": "second compound 1 µM", "result": 1.06, "unit": "µM"}, {"measurement": "viability, T/C", "setting": "second compound 0.00316 µM, first compound 0.0316 µM", "result": 72.3, "unit": "%"}, {"measurement": "viability, T/C", "setting": "second compound 0.00316 µM, first compound 0.1 µM", "result": 68.1, "unit": "%"}, {"measurement": "viability, T/C", "setting": "second compound 0.00316 µM, first compound 0.316 µM", "result": 63.8, "unit": "%"}, {"measurement": "viability, T/C", "setting": "second compound 0.00316 µM, first compound 1 µM", "result": 57.2, "unit": "%"}, {"measurement": "viability, T/C", "setting": "second compound 0.00316 µM, first compound 3.16 µM", "result": 52.4, "unit": "%"}, {"measurement": "viability, T/C", "setting": "second compound 0.00316 µM, first compound 10 µM", "result": 44.9, "unit": "%"}, {"measurement": "viability, T/C", "setting": "second compound 0.01 µM, first compound 0.0316 µM", "result": 78.6, "unit": "%"}, {"measurement": "viability, T/C", "setting": "second compound 0.01 µM, first compound 0.1 µM", "result": 73.3, "unit": "%"}, {"measurement": "viability, T/C", "setting": "second compound 0.01 µM, first compound 0.316 µM", "result": 63.3, "unit": "%"}, {"measurement": "viability, T/C", "setting": "second compound 0.01 µM, first compound 1 µM", "result": 59, "unit": "%"}, {"measurement": "viability, T/C", "setting": "second compound 0.01 µM, first compound 3.16 µM", "result": 51.6, "unit": "%"}, {"measurement": "viability, T/C", "setting": "second compound 0.01 µM, first compound 10 µM", "result": 41, "unit": "%"}, {"measurement": "viability, T/C", "setting": "second compound 0.0316 µM, first compound 0.0316 µM", "result": 80.1, "unit": "%"}, {"measurement": "viability, T/C", "setting": "second compound 0.0316 µM, first compound 0.1 µM", "result": 73.6, "unit": "%"}, {"measurement": "viability, T/C", "setting": "second compound 0.0316 µM, first compound 0.316 µM", "result": 71.4, "unit": "%"}, {"measurement": "viability, T/C", "setting": "second compound 0.0316 µM, first compound 1 µM", "result": 56.8, "unit": "%"}, {"measurement": "viability, T/C", "setting": "second compound 0.0316 µM, first compound 3.16 µM", "result": 50.4, "unit": "%"}, {"measurement": "viability, T/C", "setting": "second compound 0.0316 µM, first compound 10 µM", "result": 43.1, "unit": "%"}, {"measurement": "viability, T/C", "setting": "second compound 0.1 µM, first compound 0.0316 µM", "result": 78.2, "unit": "%"}, {"measurement": "viability, T/C", "setting": "second compound 0.1 µM, first compound 0.1 µM", "result": 74.8, "unit": "%"}, {"measurement": "viability, T/C", "setting": "second compound 0.1 µM, first compound 0.316 µM", "result": 60.1, "unit": "%"}, {"measurement": "viability, T/C", "setting": "second compound 0.1 µM, first compound 1 µM", "result": 56.9, "unit": "%"}, {"measurement": "viability, T/C", "setting": "second compound 0.1 µM, first compound 3.16 µM", "result": 46.6, "unit": "%"}, {"measurement": "viability, T/C", "setting": "second compound 0.1 µM, first compound 10 µM", "result": 41.9, "unit": "%"}, {"measurement": "viability, T/C", "setting": "second compound 0.316 µM, first compound 0.0316 µM", "result": 74.6, "unit": "%"}, {"measurement": "viability, T/C", "setting": "second compound 0.316 µM, first compound 0.1 µM", "result": 68.4, "unit": "%"}, {"measurement": "viability, T/C", "setting": "second compound 0.316 µM, first compound 0.316 µM", "result": 64.8, "unit": "%"}, {"measurement": "viability, T/C", "setting": "second compound 0.316 µM, first compound 1 µM", "result": 60.2, "unit": "%"}, {"measurement": "viability, T/C", "setting": "second compound 0.316 µM, first compound 3.16 µM", "result": 49.6, "unit": "%"}, {"measurement": "viability, T/C", "setting": "second compound 0.316 µM, first compound 10 µM", "result": 41.2, "unit": "%"}, {"measurement": "viability, T/C", "setting": "second compound 1 µM, first compound 0.0316 µM", "result": 70.6, "unit": "%"}, {"measurement": "viability, T/C", "setting": "second compound 1 µM, first compound 0.1 µM", "result": 62.2, "unit": "%"}, {"measurement": "viability, T/C", "setting": "second compound 1 µM, first compound 0.316 µM", "result": 53.6, "unit": "%"}, {"measurement": "viability, T/C", "setting": "second compound 1 µM, first compound 1 µM", "result": 52, "unit": "%"}, {"measurement": "viability, T/C", "setting": "second compound 1 µM, first compound 3.16 µM", "result": 47.2, "unit": "%"}, {"measurement": "viability, T/C", "setting": "second compound 1 µM, first compound 10 µM", "result": 36, "unit": "%"}]}]}
